Data from patent publication US8765809B2, “Ester derivative and use thereof” (Ajinomoto Co., Inc., priority 2006, dated 2014).

Columns and labels:
[1] = Stability of compound: recovery rate (isolation yield) after contact with silica gel (PTLC); type: physicochemical; conditions: for recovery at 30 min: PTLC, silica gel stirred with ethyl acetate 30 min, read-out: isolation yield (recovery rate) after PTLC, taken as stability upon contact with silica gel; for stability upon contact with silica gel: isolation and purification by PTLC
Method: As mentioned above, the reaction yields of the compounds of respective Examples were determined by applying the products obtained by a condensation reaction to PTLC and stirring the silica gel containing the object compound with ethyl acetate for 30 min, followed by filtration and concentration under reduced pressure. Since the condensation reaction proceeds at a conversion rate of not less than 90% for all compounds, the recovery rate (yield) of each compound is considered to reflect stability upon contact of the compound with the silica gel.
Using vanillyl alcohol (1.70 g, 11.0 mmol) instead of homovanillyl alcohol, and n-decanoic acid (1.72 g, 10 mmol) instead of 8-methylnonanoic acid in Example 1, similar reaction was performed. The residue was purified by PTLC to find that the yield of the obtained vanillyl decanoate was 1.33 g (4.31 mmol, 43.1%), and vanillyl decanoate was decomposed (i.e., unstabilized) by the contact with silica gel.

[2] = system: auricle of hairless mouse; experiment: Measurement of external blood circulation enhancing action: vasodilatory effect (red spots) after application to the ear; type: in vivo, hairless mouse (HR-1, female); set-up: key to Vasodilatory effect for hairless mouse (red spots) / Vasodilatory effect on hairless mouse (red spots): O: clear red spots is confirmed; Δ: weak red spots is confirmed; x: no development of red spots; conditions: for Vasodilatory effect for hairless mouse (red spots): 5 wt % (liquid paraffin), first column of Table 2; for vasodilatory / blood circulation enhancing effect, summary in words: summary of Tables 2 to 4; for Vasodilatory effect on hairless mouse (red spots) / weak red spots were observed at, time after application: 5 wt % (ethanol)
Excerpt: The compound of each Example, capsinoid derivative and capsaicin were compared for vasodilatory effect using auricle of hairless mouse. A sample was applied to the right ear of hairless mouse (HR-1, female), and a control was applied to the left ear. […]

[3] = Solubility of sample in liquid paraffin (note to Table 2); type: physicochemical; conditions: 5 wt % in liquid paraffin
[4] = application of 5 wt % in liquid paraffin

Row | Compound | recovery at 30 min [1] | stability upon contact with silica gel [1] | solubility (note, words) [3] | Vasodilatory effect for hairless mouse (red spots) [2] | blood circulation enhancing effect (note, words) [2, 4] | red spots disappeared in [2, 4] | vasodilatory / blood circulation enhancing effect, summary in words [2] | Vasodilatory effect on hairless mouse (red spots) [2] | weak red spots were observed at, time after application [2]
1 | COc1cc(CCOC(=O)CCCCCCC(C)C)ccc1O [compound I, homovanillyl 8-methylnonanoate] | 93.2% | far stabler than vanillyl decanoate | – | Δ | effect was weak and | disappeared in 1 hr | weak blood circulation enhancing effect | – | –
2 | COc1cc(CO)ccc1O [vanillyl alcohol, reference compound] | – | – | – | x | Application of 5 wt %: no blood | – | – | x | –
3 | CCCCCCCCCC(=O)OCc1ccc(O)c(OC)c1 [vanillyl decanoate, reference compound] | 43.1% | decomposed | – | – | – | – | – | – | –

More lines, main results first:

Row | recovery at 30 min [1] | stability upon contact with silica gel [1] | solubility (note, words) [3] | Compound | Vasodilatory effect for hairless mouse (red spots) [2] | blood circulation enhancing effect (note, words) [2, 4] | red spots disappeared in [2, 4] | vasodilatory / blood circulation enhancing effect, summary in words [2] | Vasodilatory effect on hairless mouse (red spots) [2] | weak red spots were observed at, time after application [2]
4 | – | – | sparingly soluble, thus red | COc1cc(CCOC(=O)CCCCCC(C)C)ccc1O [compound I-1, homovanillyl 7-methyloctanoate] | x | – | – | weak blood circulation enhancing effect | Δ | Weak red spots were observed at 20 min
5 | – | – | sparingly soluble, thus red | COc1cc(CCOC(=O)CCCCC(C)C)ccc1O [compound I-2, homovanillyl 6-methylheptanoate] | x | – | – | weak blood circulation enhancing effect | Δ | Weak red spots were observed at 20 min
6 | – | – | sparingly soluble, thus red | COc1cc(CCOC(=O)CCCC(C)C)ccc1O [compound I-3, homovanillyl 5-methylhexanoate] | x | – | – | weak blood circulation enhancing effect | Δ | Weak red spots were observed at 20 min
